EP4582423A1, “NOVEL TRICYCLIC DERIVATIVE COMPOUND AND USES THEREOF” (Hanmi Pharm. Co., Ltd., priority 2022, dated 2024)
Like-named read-outs stand apart in the source and are kept apart here.

Test system: HCT116 MTAP-/- cells
Experiment: Cell growth inhibition test (SRB staining)
Assay type: cell-based
Conditions: Homo sapiens, HCT-116, 144 h
Protocol: The synthetic compounds above were tested for cell growth inhibition against HCT116 cells.
HCT116 MTAP-/- (homozygous knockout of MTAP gene in HCT116 MTAP-WT cells by CRISPER/Cas9 method) cells were maintained in RPMI1640 medium containing 10 % FBS and 1 % penicillin-streptomycin. Approximately 5×10^2 cells were seeded in a 96-well plate and treated with a test compound. (0.64 nM - 2,000 nM, 6 dose points for HCT116 MTAP-/- cells for 5x and 6 days) cell growth was measured by SRB staining and absorbance was detected at 540 nm on a Synergy™ NEO microplate reader. The 50 % growth inhibition value (GI50) of the cell line was calculated using GraphPad Prism V9 software.

[1] = HCT116 MTAP-/- cells, 0.64 nM - 2,000 nM, 6 dose points, 6 days, SRB staining, absorbance at 540 nm, read-out: HCT116 MTAP-/- cell growth inhibition (GI50)

SMILES	GI50 [1] [nM]	GI50 (read-out: HCT116 MTAP-/- cell growth inhibition (GI50, nM)) [nM]
COc1ccc(Nc2nc3c(=O)n(-c4ccccc4)c4cc(Cl)ccc4c3n2C)cc1 [Compound 40, 7-chloro-2-((4-methoxyphenyl)amino)-1-methyl-5-phenyl-1,5-dihydro-4H-imidazo[4,5-c]quinolin-4-one]	> 1000	
Cn1c(CCc2ccccc2)nc2c(=O)n(-c3ccccc3)c3cc(Cl)ccc3c21 [Compound 9, 7-chloro-1-methyl-2-phenethyl-5-phenyl-1,5-dihydro-4H-imidazo[4,5-c]quinolin-4-one]	> 1000	
COc1ccc(Cc2nc3c(=O)n(-c4cccnc4C)c4cc(N)ccc4c3n2C)cc1 [Compound 52, 7-amino-2-(4-methoxybenzyl)-1-methyl-5-(2-methylpyridin-3-yl)-1,5-dihydro-4H-imidazo[4,5-c]quinolin-4-one]	500 to 1000	
COc1ccc(Cc2nc3c(=O)n(-c4ccccc4Cl)c4cc(Cl)ccc4c3n2C)cc1 [Compound 26, 7-chloro-5-(2-chlorophenyl)-2-(4-methoxybenzyl)-1-methyl-1,5-dihydro-4H-imidazo[4,5-c]quinolin-4-one]	100 to 500	
CCc1ccc2c3c(nc(Cc4ccc(OC(F)F)cc4)n3C)c(=O)n(-c3cccnc3C)c2n1 [Compound 65, 2-(4-(difluoromethoxy)benzyl)-7-ethyl-1-methyl-5-(2-methylpyridin-3-yl)-1,5-dihydro-4H-imidazo[4,5-c][1,8]naphthyridin-4-one]	< 100	
Cc1ncccc1-n1c(=O)c2nc(Cc3ccc(OC(F)F)cc3)n(C)c2c2ccc(C3CC3)nc21 [Compound 66, 7-cyclopropyl-2-(4-(difluoromethoxy)benzyl)-1-methyl-5-(2-methylpyridin-3-yl)-1,5-dihydro-4H-imidazo[4,5-c][1,8]naphthyridin-4-one]	< 100	
COc1ccc(Cc2nc3c(=O)n(-c4cccnc4C)c4cc(N5CCCC5)ccc4c3n2C)cc1 [Compound 50, 2-(4-methoxybenzyl)-1-methyl-5-(2-methylpyridin-3-yl)-7-(pyrrolidin-1-yl)-1,5-dihydro-4H-imidazo[4,5-c]quinolin-4-one]	> 1000	
Cn1c(Cc2ccccc2)nc2c(=O)n(-c3ccccc3)c3cc(Cl)ccc3c21 [Compound 1, 2-benzyl-7-chloro-1-methyl-5-phenyl-1,5-dihydro-4H-imidazo[4,5-c]quinolin-4-one]		100 to 500
Cc1ncccc1-n1c(=O)c2nc(Sc3ccc4c(c3)OCO4)n(C)c2c2ccc(Cl)cc21 [Compound 38, 2-(benzo[d][1,3]dioxol-5-ylthio)-7-chloro-1-methyl-5-(2-methylpyridin-3-yl)-1,5-dihydro-4H-imidazo[4,5-c]quinolin-4-one]	< 100	
COc1ccc(Cc2nc3c(=O)n(-c4cccnc4C)c4ccccc4c3n2C)cc1 [Compound 22, 2-(4-methoxybenzyl)-1-methyl-5-(2-methylpyridin-3-yl)-1,5-dihydro-4H-imidazo[4,5-c]quinolin-4-one]	500 to 1000	
Cn1c(Cn2ccnc2)nc2c(=O)n(-c3ccccc3)c3cc(Cl)ccc3c21 [Compound 12, 2-((1H-imidazol-1-yl)methyl)-7-chloro-1-methyl-5-phenyl-1,5-dihydro-4H-imidazo[4,5-c]quinolin-4-one]	> 1000	
COc1ccccc1Cc1nc2c(=O)n(-c3ccccc3)c3cc(Cl)ccc3c2n1C [Compound 5, 7-chloro-2-(2-methoxybenzyl)-1-methyl-5-phenyl-1,5-dihydro-4H-imidazo[4,5-c]quinolin-4-one]	100 to 500	
COc1ccc(Sc2nc3c(=O)n(-c4cccnc4C)c4nc(C(F)(F)F)ncc4c3n2C)cc1 [Compound 61, 2-((4-methoxyphenyl)thio)-1-methyl-5-(2-methylpyridin-3-yl)-7-(trifluoromethyl)-1,5-dihydro-4H-imidazo[4',5':4,5]pyrido[2,3-d]pyrimidin-4-one]	< 100	
COc1ccc(Cc2nc3c(=O)n(-c4cccnc4C)c4nc(OC)ccc4c3n2C)cc1 [Compound 64, 7-methoxy-2-(4-methoxybenzyl)-1-methyl-5-(2-methylpyridin-3-yl)-1,5-dihydro-4H-imidazo[4,5-c][1,8]naphthyridin-4-one]	< 100	
COc1ccc(Cc2nc3c(=O)n(-c4ccccc4)c4nc(NCC(F)(F)F)ccc4c3n2C)cc1 [Compound 15, 2-(4-methoxybenzyl)-1-methyl-5-phenyl-7-((2,2,2-trifluoroethyl)amino)-1,5-dihydro-4H-imidazo[4,5-c][1,8]naphthyridin-4-one]	> 1000	
COc1ccc(N(C)c2nc3c(=O)n(-c4ccccc4)c4cc(Cl)ccc4c3n2C)cc1 [Compound 41, 7-chloro-2-((4-methoxyphenyl)(methyl)amino)-1-methyl-5-phenyl-1,5-dihydro-4H-imidazo[4,5-c]quinolin-4-one]	> 1000	

SMILES	GI50 [1] [nM]	GI50 (read-out: HCT116 MTAP-/- cell growth inhibition (GI50, nM)) [nM]
COc1ccc(Cc2nc3c(=O)n(-c4ccc(F)cc4)c4cc(Cl)ccc4c3n2C)cc1 [Compound 32, 7-chloro-5-(4-fluorophenyl)-2-(4-methoxybenzyl)-1-methyl-1,5-dihydro-4H-imidazo[4,5-c]quinolin-4-one]	> 1000	
COc1cccc(Cc2nc3c(=O)n(-c4ccccc4)c4cc(Cl)ccc4c3n2C)c1 [Compound 4, 7-chloro-2-(3-methoxybenzyl)-1-methyl-5-phenyl-1,5-dihydro-4H-imidazo[4,5-c]quinolin-4-one]	< 100	
Cn1c(Cc2ccc(Cl)cc2)nc2c(=O)n(-c3ccccc3)c3cc(Cl)ccc3c21 [Compound 6, 7-chloro-2-(4-chlorobenzyl)-1-methyl-5-phenyl-1,5-dihydro-4H-imidazo[4,5-c]quinolin-4-one]	100 to 500	
COc1ccc(Cc2nc3c(=O)n(-c4cccnc4C)c4cc(C)ccc4c3n2C)cc1 [Compound 49, 2-(4-methoxybenzyl)-1,7-dimethyl-5-(2-methylpyridin-3-yl)-1,5-dihydro-4H-imidazo[4,5-c]quinolin-4-one]	100 to 500	
Cc1ncccc1-n1c(=O)c2nc(Sc3ccc(F)cc3F)n(C)c2c2ccc(Cl)cc21 [Compound 39, 7-chloro-2-((2,4-difluorophenyl)thio)-1-methyl-5-(2-methylpyridin-3-yl)-1,5-dihydro-4H-imidazo[4,5-c]quinolin-4-one]	< 100	
COc1ccc(Cc2nc3c(=O)n(-c4cccnc4)c4cc(Cl)ccc4c3n2C)cc1 [Compound 31, 7-chloro-2-(4-methoxybenzyl)-1-methyl-5-(pyridin-3-yl)-1,5-dihydro-4H-imidazo[4,5-c]quinolin-4-one]	< 100	
Cc1ncccc1-n1c(=O)c2nc(Cc3ccc(F)c(F)c3)n(C)c2c2ccc(Cl)cc21 [Compound 30, 7-chloro-2-(3,4-difluorobenzyl)-1-methyl-5-(2-methylpyridin-3-yl)-1,5-dihydro-4H-imidazo[4,5-c]quinolin-4-one]	< 100	
COc1ccc(Cc2nc3c(=O)n(-c4ccccc4C(F)(F)F)c4cc(Cl)ccc4c3n2C)cc1 [Compound 25, 7-chloro-2-(4-methoxybenzyl)-1-methyl-5-(2-(trifluoromethyl)phenyl)-1,5-dihydro-4H-imidazo[4,5-c]quinolin-4-one]	100 to 500	
COc1ccc(Cc2nc3c(=O)n(-c4ccc(Cl)c(F)c4)c4cc(Cl)ccc4c3n2C)cc1 [Compound 16, 7-chloro-5-(4-chloro-3-fluorophenyl)-2-(4-methoxybenzyl)-1-methyl-1,5-dihydro-4H-imidazo[4,5-c]quinolin-4-one]	> 1000	
COc1ccc(Cc2nc3c(=O)n(-c4ccc(OC(F)F)cc4)c4nc(C(F)(F)F)ccc4c3n2C)cc1 [Compound 56, 5-(4-(Difluoromethoxy)phenyl)-2-(4-methoxybenzyl)-1-methyl-7-(trifluoromethyl)-1,5-dihydro-4H-imidazo[4,5-c][1,8]naphthyridin-4-one]	> 1000	
CNc1ccc2c3c(nc(Cc4ccc(OC)cc4)n3C)c(=O)n(-c3cccnc3C)c2c1 [Compound 53, 2-(4-methoxybenzyl)-1-methyl-7-(methylamino)-5-(2-methylpyridin-3-yl)-1,5-dihydro-4H-imidazo[4,5-c]quinolin-4-one]	< 100	
Cc1ncccc1-n1c(=O)c2nc(Cc3ccc4c(c3)OCO4)n(C)c2c2ccc(Cl)cc21 [Compound 29, 2-(benzo[d][1,3]dioxol-5-ylmethyl)-7-chloro-1-methyl-5-(2-methylpyridin-3-yl)-1,5-dihydro-4H-imidazo[4,5-c]quinolin-4-one]	< 100	
COc1ccc(Sc2nc3c(=O)n(-c4ccc(OC)cc4)c4cc(Cl)ccc4c3n2C)cc1 [Compound 34, 7-chloro-5-(4-methoxyphenyl)-2-((4-methoxyphenyl)thio)-1-methyl-1,5-dihydro-4H-imidazo[4,5-c]quinolin-4-one]	> 1000	
COc1ccc(Cc2nc3c(=O)n(-c4ccccc4)c4cc(Cl)ccc4c3n2C)cc1OC [Compound 8, 7-chloro-2-(3,4-dimethoxybenzyl)-1-methyl-5-phenyl-1,5-dihydro-4H-imidazo[4,5-c]quinolin-4-one]	100 to 500	
Cn1c(Cc2ccc(O)cc2)nc2c(=O)n(-c3ccccc3)c3cc(Cl)ccc3c21 [Compound 3, 7-chloro-2-(4-hydroxybenzyl)-1-methyl-5-phenyl-1,5-dihydro-4H-imidazo[4,5-c]quinolin-4-one]	> 1000	
Cc1ncccc1-n1c(=O)c2nc(Cc3ccc(OC(F)F)cc3)n(C)c2c2ccc(C(F)(F)F)nc21 [Compound 58, 2-(4-(Difluoromethoxy)benzyl)-1-methyl-5-(2-methylpyridin-3-yl)-7-(trifluoromethyl)-1,5-dihydro-4H-imidazo[4,5-c][1,8]naphthyridin-4-one]	< 100	
